{
  "source": "paper PMC4823954",
  "about": "“From fighting depression to conquering tumors: a novel tricyclic thiazepine compound as a tubulin polymerization inhibitor” (Cell Death & Disease, 2016)",
  "assay_in_all_cases": "KINOMEscan",
  "format_in_all_cases": "binding",
  "settings_in_all_cases": "read-out: % Ctrl",
  "key": {"[1]": {"target": "T1, BRK (Homo sapiens, UniProt Q13882)", "T1 construct": "purchased DiscoveRx KINOMEscan", "procedure,_shortened": "(§1)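 Competition binding panel of 442 non-mutant kinases: test compound at 5 and 10 μM competed with an active-site-directed ligand for 1 h with shaking. Bound kinase was eluted with 0.5 μM ligand and quantified by qPCR; %Ctrl = (compound − positive control)/(DMSO − positive control) × 100, lower meaning tighter binding.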"}, "[2]": {"target": "T2, ABL1(Q252H)-nonphosphorylated (Homo sapiens, UniProt P00519, Q252H)", "T2 construct": "purchased DiscoveRx KINOMEscan"}, "[3]": {"target": "T3, ABL2 (Homo sapiens, UniProt P42684)", "T3 construct": "purchased DiscoveRx KINOMEscan", "procedure,_shortened": "as §1"}, "[4]": {"target": "T4, PFPK5(P.falciparum) (Plasmodium falciparum, UniProt P61075)", "T4 construct": "purchased DiscoveRx KINOMEscan", "procedure,_shortened": "as §1"}, "[5]": {"target": "T5, EPHB1 (Homo sapiens, UniProt P54762)", "T5 construct": "purchased DiscoveRx KINOMEscan", "T5 sequence (P54762 18-984)": "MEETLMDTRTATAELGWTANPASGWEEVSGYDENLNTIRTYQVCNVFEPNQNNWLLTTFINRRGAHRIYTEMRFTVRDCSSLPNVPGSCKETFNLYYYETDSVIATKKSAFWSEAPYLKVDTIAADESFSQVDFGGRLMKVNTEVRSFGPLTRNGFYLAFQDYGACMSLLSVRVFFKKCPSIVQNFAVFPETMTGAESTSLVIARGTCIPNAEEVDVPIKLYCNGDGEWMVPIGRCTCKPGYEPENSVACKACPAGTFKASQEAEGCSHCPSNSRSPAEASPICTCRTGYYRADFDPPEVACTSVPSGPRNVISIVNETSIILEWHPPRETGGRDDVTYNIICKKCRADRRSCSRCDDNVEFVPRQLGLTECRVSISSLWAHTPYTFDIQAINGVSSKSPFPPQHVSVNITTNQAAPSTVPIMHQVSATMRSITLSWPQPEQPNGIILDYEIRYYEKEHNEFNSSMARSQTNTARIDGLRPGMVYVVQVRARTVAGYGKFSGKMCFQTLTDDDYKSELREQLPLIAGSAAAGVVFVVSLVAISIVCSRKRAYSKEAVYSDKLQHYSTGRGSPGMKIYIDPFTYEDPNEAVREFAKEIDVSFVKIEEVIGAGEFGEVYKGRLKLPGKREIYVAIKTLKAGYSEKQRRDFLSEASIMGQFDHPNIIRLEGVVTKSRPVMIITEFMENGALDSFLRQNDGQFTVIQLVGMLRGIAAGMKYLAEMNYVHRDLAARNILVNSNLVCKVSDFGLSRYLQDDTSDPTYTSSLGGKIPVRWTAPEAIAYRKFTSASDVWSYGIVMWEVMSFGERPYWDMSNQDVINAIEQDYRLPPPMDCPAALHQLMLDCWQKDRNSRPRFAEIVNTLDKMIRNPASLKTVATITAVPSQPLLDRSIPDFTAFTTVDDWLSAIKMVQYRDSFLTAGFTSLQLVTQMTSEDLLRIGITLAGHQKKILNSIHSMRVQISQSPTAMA", "procedure,_shortened": "as §1"}, "[6]": {"target": "T6, LKB1 (Homo sapiens, UniProt Q15831)", "T6 construct": "purchased DiscoveRx KINOMEscan", "procedure,_shortened": "as §1"}, "[7]": {"target": "T7, PAK2 (Homo sapiens, UniProt Q13177)", "T7 construct": "purchased DiscoveRx KINOMEscan", "procedure,_shortened": "as §1"}, "[8]": {"target": "T8, RIPK1 (Homo sapiens, UniProt Q13546)", "T8 construct": "purchased DiscoveRx KINOMEscan", "procedure,_shortened": "as §1"}, "[9]": {"target": "T9, TAK1 (Homo sapiens, UniProt O43318)", "T9 construct": "purchased DiscoveRx KINOMEscan", "procedure,_shortened": "as §1"}, "[10]": {"target": "T10, JNK1 (Homo sapiens, UniProt P45983)", "T10 construct": "purchased DiscoveRx KINOMEscan", "procedure,_shortened": "as §1"}, "[11]": {"target": "T11, ULK2 (Homo sapiens, UniProt Q8IYT8)", "T11 construct": "purchased DiscoveRx KINOMEscan", "procedure,_shortened": "as §1"}, "[12]": {"target": "T12, PFTAIRE2 (Homo sapiens, UniProt Q96Q40)", "T12 construct": "purchased DiscoveRx KINOMEscan", "procedure,_shortened": "as §1"}, "[13]": {"target": "T13, AXL (Homo sapiens, UniProt P30530)", "T13 construct": "purchased DiscoveRx KINOMEscan", "procedure,_shortened": "as §1"}, "[14]": {"target": "T14, NIM1 (Homo sapiens, UniProt Q8IY84)", "T14 construct": "purchased DiscoveRx KINOMEscan", "procedure,_shortened": "as §1"}, "[15]": {"target": "T15, SNRK (Homo sapiens, UniProt Q9NRH2)", "T15 construct": "purchased DiscoveRx KINOMEscan", "procedure,_shortened": "as §1"}, "[16]": {"target": "T16, PRKCH (Homo sapiens, UniProt P24723)", "T16 construct": "purchased DiscoveRx KINOMEscan", "procedure,_shortened": "as §1"}, "[17]": {"target": "T17, CHEK1 (Homo sapiens, UniProt O14757)", "T17 construct": "purchased DiscoveRx KINOMEscan", "procedure,_shortened": "as §1"}, "[18]": {"target": "T18, CDK8 (Homo sapiens, UniProt P49336)", "T18 construct": "purchased DiscoveRx KINOMEscan", "procedure,_shortened": "as §1"}, "[19]": {"target": "T19, OSR1 (Homo sapiens, UniProt O95747)", "T19 construct": "purchased DiscoveRx KINOMEscan", "procedure,_shortened": "as §1"}, "[20]": {"target": "T20, MAPKAPK2 (Homo sapiens, UniProt P49137)", "T20 construct": "purchased DiscoveRx KINOMEscan", "procedure,_shortened": "as §1"}, "[21]": {"target": "T21, BMPR2 (Homo sapiens, UniProt Q13873)", "T21 construct": "purchased DiscoveRx KINOMEscan", "T21 sequence (Q13873 27-1038)": "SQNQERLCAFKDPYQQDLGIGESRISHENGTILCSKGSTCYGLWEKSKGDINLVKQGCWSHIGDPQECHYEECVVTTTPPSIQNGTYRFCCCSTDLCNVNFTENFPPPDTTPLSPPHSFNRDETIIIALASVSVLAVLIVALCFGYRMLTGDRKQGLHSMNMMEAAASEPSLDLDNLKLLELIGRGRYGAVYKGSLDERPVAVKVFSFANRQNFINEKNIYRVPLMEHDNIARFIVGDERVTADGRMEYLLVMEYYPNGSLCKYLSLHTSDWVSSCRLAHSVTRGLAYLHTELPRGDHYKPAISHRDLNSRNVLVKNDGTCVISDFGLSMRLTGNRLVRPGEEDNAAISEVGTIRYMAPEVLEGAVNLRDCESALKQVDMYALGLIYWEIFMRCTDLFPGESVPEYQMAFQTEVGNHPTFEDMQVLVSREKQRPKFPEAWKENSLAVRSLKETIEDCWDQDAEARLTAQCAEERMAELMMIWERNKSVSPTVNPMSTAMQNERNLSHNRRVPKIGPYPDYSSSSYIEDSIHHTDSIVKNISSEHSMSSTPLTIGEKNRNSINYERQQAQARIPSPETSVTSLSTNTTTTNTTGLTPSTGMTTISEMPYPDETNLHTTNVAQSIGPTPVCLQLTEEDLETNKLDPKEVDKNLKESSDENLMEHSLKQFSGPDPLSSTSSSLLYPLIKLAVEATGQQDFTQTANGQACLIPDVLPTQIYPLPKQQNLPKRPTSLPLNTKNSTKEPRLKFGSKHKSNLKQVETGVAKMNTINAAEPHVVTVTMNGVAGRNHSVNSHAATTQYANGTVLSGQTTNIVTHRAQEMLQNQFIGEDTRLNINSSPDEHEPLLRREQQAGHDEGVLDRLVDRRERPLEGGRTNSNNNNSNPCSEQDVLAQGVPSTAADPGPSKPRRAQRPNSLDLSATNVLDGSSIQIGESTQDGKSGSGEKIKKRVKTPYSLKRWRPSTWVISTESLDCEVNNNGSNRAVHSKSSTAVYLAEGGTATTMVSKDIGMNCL", "procedure,_shortened": "as §1"}, "[22]": {"target": "T22, FGFR2 (Homo sapiens, UniProt P21802)", "T22 construct": "purchased DiscoveRx KINOMEscan", "T22 sequence (P21802 22-821)": "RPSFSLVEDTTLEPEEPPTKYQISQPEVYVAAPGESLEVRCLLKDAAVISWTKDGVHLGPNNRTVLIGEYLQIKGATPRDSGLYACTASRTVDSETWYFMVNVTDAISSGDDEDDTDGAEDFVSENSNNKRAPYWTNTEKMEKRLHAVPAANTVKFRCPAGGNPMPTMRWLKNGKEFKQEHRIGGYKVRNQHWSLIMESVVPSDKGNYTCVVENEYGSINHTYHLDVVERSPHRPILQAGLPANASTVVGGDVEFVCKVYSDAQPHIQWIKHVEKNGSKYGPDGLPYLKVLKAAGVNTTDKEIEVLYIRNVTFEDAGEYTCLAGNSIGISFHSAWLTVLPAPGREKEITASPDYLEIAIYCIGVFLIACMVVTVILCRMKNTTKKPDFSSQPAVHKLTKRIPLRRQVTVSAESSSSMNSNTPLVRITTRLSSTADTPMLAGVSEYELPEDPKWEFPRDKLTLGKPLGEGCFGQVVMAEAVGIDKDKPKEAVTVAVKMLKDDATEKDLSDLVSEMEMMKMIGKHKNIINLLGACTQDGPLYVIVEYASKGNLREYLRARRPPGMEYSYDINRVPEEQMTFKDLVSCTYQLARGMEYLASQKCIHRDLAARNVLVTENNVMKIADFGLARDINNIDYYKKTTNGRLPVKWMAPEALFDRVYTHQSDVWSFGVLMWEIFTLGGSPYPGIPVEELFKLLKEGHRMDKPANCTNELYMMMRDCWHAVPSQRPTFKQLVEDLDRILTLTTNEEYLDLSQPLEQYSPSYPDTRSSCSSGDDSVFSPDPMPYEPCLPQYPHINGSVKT", "procedure,_shortened": "as §1"}, "[23]": {"target": "T23, NEK11 (Homo sapiens, UniProt Q8NG66)", "T23 construct": "purchased DiscoveRx KINOMEscan", "procedure,_shortened": "as §1"}, "[24]": {"target": "T24, CDK11 (Homo sapiens, UniProt Q9BWU1)", "T24 construct": "purchased DiscoveRx KINOMEscan", "procedure,_shortened": "as §1"}, "[25]": {"target": "T25, IKK-beta (Homo sapiens, UniProt O14920)", "T25 construct": "purchased DiscoveRx KINOMEscan", "procedure,_shortened": "as §1"}, "[26]": {"target": "T26, p38-delta (Homo sapiens, UniProt O15264)", "T26 construct": "purchased DiscoveRx KINOMEscan", "procedure,_shortened": "as §1"}, "[27]": {"target": "T27, EPHB4 (Homo sapiens, UniProt P54760)", "T27 construct": "purchased DiscoveRx KINOMEscan", "T27 sequence (P54760 16-987)": "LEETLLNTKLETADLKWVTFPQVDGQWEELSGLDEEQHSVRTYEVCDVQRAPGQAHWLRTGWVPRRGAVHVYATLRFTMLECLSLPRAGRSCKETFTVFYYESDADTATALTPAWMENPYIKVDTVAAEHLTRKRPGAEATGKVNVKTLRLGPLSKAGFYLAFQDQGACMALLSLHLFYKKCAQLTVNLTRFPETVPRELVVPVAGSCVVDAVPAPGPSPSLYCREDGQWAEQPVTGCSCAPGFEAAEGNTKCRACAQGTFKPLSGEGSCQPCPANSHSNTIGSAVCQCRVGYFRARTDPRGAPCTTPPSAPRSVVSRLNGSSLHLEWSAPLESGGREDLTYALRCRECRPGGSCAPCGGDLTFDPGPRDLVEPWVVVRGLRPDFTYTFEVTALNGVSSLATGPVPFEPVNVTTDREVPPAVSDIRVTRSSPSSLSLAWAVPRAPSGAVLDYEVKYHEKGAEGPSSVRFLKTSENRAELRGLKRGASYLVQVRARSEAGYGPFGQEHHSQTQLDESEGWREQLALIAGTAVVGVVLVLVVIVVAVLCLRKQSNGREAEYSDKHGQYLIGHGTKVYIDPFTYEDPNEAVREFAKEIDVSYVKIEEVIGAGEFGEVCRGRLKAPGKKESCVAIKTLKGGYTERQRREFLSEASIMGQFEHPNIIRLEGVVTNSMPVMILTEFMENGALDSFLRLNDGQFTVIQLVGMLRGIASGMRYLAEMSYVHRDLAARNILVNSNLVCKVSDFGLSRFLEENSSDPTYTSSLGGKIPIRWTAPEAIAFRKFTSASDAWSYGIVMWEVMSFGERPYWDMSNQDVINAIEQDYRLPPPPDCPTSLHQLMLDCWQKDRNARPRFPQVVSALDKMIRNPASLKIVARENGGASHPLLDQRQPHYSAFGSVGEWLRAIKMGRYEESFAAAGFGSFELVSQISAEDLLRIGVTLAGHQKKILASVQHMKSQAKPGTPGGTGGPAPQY", "procedure,_shortened": "as §1"}, "[28]": {"target": "T28, BRSK1 (Homo sapiens, UniProt Q8TDC3)", "T28 construct": "purchased DiscoveRx KINOMEscan", "procedure,_shortened": "as §1"}, "[29]": {"target": "T29, KIT(V559D,T670I) (Homo sapiens, UniProt P10721, T670I/V559D)", "T29 construct": "purchased DiscoveRx KINOMEscan"}, "[30]": {"target": "T30, MERTK (Homo sapiens, UniProt Q12866)", "T30 construct": "purchased DiscoveRx KINOMEscan", "T30 sequence (Q12866 21-999)": "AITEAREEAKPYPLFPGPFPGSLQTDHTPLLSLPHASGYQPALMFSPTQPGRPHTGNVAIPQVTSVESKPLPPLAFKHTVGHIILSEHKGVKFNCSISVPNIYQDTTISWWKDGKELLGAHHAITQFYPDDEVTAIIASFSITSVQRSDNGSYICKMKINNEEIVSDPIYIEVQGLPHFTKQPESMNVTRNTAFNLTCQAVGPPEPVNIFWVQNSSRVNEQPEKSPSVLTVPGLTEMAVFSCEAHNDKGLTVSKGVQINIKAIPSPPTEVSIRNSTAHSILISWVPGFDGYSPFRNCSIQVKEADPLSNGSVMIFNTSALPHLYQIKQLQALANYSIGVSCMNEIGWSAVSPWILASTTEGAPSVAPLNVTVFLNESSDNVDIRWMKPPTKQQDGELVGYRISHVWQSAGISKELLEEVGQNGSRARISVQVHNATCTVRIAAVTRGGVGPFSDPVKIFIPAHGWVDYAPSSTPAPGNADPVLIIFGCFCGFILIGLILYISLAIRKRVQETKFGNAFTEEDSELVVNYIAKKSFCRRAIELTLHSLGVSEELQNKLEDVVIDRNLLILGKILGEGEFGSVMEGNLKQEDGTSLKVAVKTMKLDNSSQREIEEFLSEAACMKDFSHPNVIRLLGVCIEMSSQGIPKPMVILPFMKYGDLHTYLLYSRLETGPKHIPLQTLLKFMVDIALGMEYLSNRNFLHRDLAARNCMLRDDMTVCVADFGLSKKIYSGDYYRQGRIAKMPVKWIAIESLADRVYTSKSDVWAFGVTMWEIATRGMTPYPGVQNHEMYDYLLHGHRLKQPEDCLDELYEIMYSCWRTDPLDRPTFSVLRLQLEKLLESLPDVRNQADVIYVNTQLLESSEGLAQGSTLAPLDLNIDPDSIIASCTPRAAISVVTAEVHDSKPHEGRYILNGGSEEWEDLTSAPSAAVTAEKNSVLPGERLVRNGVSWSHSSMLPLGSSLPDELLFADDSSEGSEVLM", "procedure,_shortened": "as §1"}},
  "data": [
    {"smiles": "Cc1ccc(C2=Nc3cccnc3S(=O)(=O)c3ccccc32)cc1", "note": "[TBPT, 6-(p-tolyl)benzo[f] pyrido[2,3-b][1,4] thiazepine 11,11-dioxide]", "values": [
      {"measurement": "remaining binding at 5 µM", "setting": "[1]; 5 μM", "result": 100, "unit": "%"},
      {"measurement": "remaining binding at 10 µM", "setting": "[1]; 10 μM", "result": 98, "unit": "%"},
      {"measurement": "remaining binding at 5 µM", "setting": "[2]; 5 μM", "result": 79, "unit": "%"},
      {"measurement": "remaining binding at 10 µM", "setting": "[2]; 10 μM", "result": 100, "unit": "%"},
      {"measurement": "remaining binding at 5 µM", "setting": "[3]; 5 μM", "result": 80, "unit": "%"},
      {"measurement": "remaining binding at 10 µM", "setting": "[3]; 10 μM", "result": 97, "unit": "%"},
      {"measurement": "remaining binding at 5 µM", "setting": "[4]; 5 μM", "result": 97, "unit": "%"},
      {"measurement": "remaining binding at 10 µM", "setting": "[4]; 10 μM", "result": 97, "unit": "%"},
      {"measurement": "remaining binding at 5 µM", "setting": "[5]; 5 μM", "result": 100, "unit": "%"},
      {"measurement": "remaining binding at 10 µM", "setting": "[5]; 10 μM", "result": 100, "unit": "%"},
      {"measurement": "remaining binding at 5 µM", "setting": "[6]; 5 μM", "result": 100, "unit": "%"},
      {"measurement": "remaining binding at 10 µM", "setting": "[6]; 10 μM", "result": 89, "unit": "%"},
      {"measurement": "remaining binding at 5 µM", "setting": "[7]; 5 μM", "result": 100, "unit": "%"},
      {"measurement": "remaining binding at 10 µM", "setting": "[7]; 10 μM", "result": 100, "unit": "%"},
      {"measurement": "remaining binding at 5 µM", "setting": "[8]; 5 μM", "result": 100, "unit": "%"},
      {"measurement": "remaining binding at 10 µM", "setting": "[8]; 10 μM", "result": 100, "unit": "%"},
      {"measurement": "remaining binding at 5 µM", "setting": "[9]; 5 μM", "result": 87, "unit": "%"},
      {"measurement": "remaining binding at 10 µM", "setting": "[9]; 10 μM", "result": 93, "unit": "%"},
      {"measurement": "remaining binding at 5 µM", "setting": "[10]; 5 μM", "result": 100, "unit": "%"},
      {"measurement": "remaining binding at 10 µM", "setting": "[10]; 10 μM", "result": 85, "unit": "%"},
      {"measurement": "remaining binding at 5 µM", "setting": "[11]; 5 μM", "result": 91, "unit": "%"},
      {"measurement": "remaining binding at 10 µM", "setting": "[11]; 10 μM", "result": 92, "unit": "%"},
      {"measurement": "remaining binding at 5 µM", "setting": "[12]; 5 μM", "result": 100, "unit": "%"},
      {"measurement": "remaining binding at 10 µM", "setting": "[12]; 10 μM", "result": 89, "unit": "%"},
      {"measurement": "remaining binding at 5 µM", "setting": "[13]; 5 μM", "result": 98, "unit": "%"},
      {"measurement": "remaining binding at 10 µM", "setting": "[13]; 10 μM", "result": 100, "unit": "%"},
      {"measurement": "remaining binding at 5 µM", "setting": "[14]; 5 μM", "result": 90, "unit": "%"},
      {"measurement": "remaining binding at 10 µM", "setting": "[14]; 10 μM", "result": 78, "unit": "%"},
      {"measurement": "remaining binding at 5 µM", "setting": "[15]; 5 μM", "result": 100, "unit": "%"},
      {"measurement": "remaining binding at 10 µM", "setting": "[15]; 10 μM", "result": 100, "unit": "%"},
      {"measurement": "remaining binding at 5 µM", "setting": "[16]; 5 μM", "result": 82, "unit": "%"},
      {"measurement": "remaining binding at 10 µM", "setting": "[16]; 10 μM", "result": 100, "unit": "%"},
      {"measurement": "remaining binding at 5 µM", "setting": "[17]; 5 μM", "result": 100, "unit": "%"},
      {"measurement": "remaining binding at 10 µM", "setting": "[17]; 10 μM", "result": 100, "unit": "%"},
      {"measurement": "remaining binding at 5 µM", "setting": "[18]; 5 μM", "result": 94, "unit": "%"},
      {"measurement": "remaining binding at 10 µM", "setting": "[18]; 10 μM", "result": 100, "unit": "%"},
      {"measurement": "remaining binding at 5 µM", "setting": "[19]; 5 μM", "result": 100, "unit": "%"},
      {"measurement": "remaining binding at 10 µM", "setting": "[19]; 10 μM", "result": 87, "unit": "%"},
      {"measurement": "remaining binding at 5 µM", "setting": "[20]; 5 μM", "result": 100, "unit": "%"},
      {"measurement": "remaining binding at 10 µM", "setting": "[20]; 10 μM", "result": 100, "unit": "%"},
      {"measurement": "remaining binding at 5 µM", "setting": "[21]; 5 μM", "result": 85, "unit": "%"},
      {"measurement": "remaining binding at 10 µM", "setting": "[21]; 10 μM", "result": 100, "unit": "%"},
      {"measurement": "remaining binding at 5 µM", "setting": "[22]; 5 μM", "result": 93, "unit": "%"},
      {"measurement": "remaining binding at 10 µM", "setting": "[22]; 10 μM", "result": 100, "unit": "%"},
      {"measurement": "remaining binding at 5 µM", "setting": "[23]; 5 μM", "result": 43, "unit": "%"},
      {"measurement": "remaining binding at 10 µM", "setting": "[23]; 10 μM", "result": 100, "unit": "%"},
      {"measurement": "remaining binding at 5 µM", "setting": "[24]; 5 μM", "result": 100, "unit": "%"},
      {"measurement": "remaining binding at 10 µM", "setting": "[24]; 10 μM", "result": 100, "unit": "%"},
      {"measurement": "remaining binding at 5 µM", "setting": "[25]; 5 μM", "result": 84, "unit": "%"},
      {"measurement": "remaining binding at 10 µM", "setting": "[25]; 10 μM", "result": 98, "unit": "%"},
      {"measurement": "remaining binding at 5 µM", "setting": "[26]; 5 μM", "result": 75, "unit": "%"},
      {"measurement": "remaining binding at 10 µM", "setting": "[26]; 10 μM", "result": 65, "unit": "%"},
      {"measurement": "remaining binding at 5 µM", "setting": "[27]; 5 μM", "result": 100, "unit": "%"},
      {"measurement": "remaining binding at 10 µM", "setting": "[27]; 10 μM", "result": 98, "unit": "%"},
      {"measurement": "remaining binding at 5 µM", "setting": "[28]; 5 μM", "result": 100, "unit": "%"},
      {"measurement": "remaining binding at 10 µM", "setting": "[28]; 10 μM", "result": 97, "unit": "%"},
      {"measurement": "remaining binding at 5 µM", "setting": "[29]; 5 μM", "result": 94, "unit": "%"},
      {"measurement": "remaining binding at 10 µM", "setting": "[29]; 10 μM", "result": 100, "unit": "%"},
      {"measurement": "remaining binding at 5 µM", "setting": "[30]; 5 μM", "result": 100, "unit": "%"},
      {"measurement": "remaining binding at 10 µM", "setting": "[30]; 10 μM", "result": 80, "unit": "%"}
    ]}
  ]
}
